Measurements: the NIST ThermoML archive (doi:10.1016/j.jct.2012.10.011)
Numbers after ± are expanded uncertainties.

Key:
[1] = molar heat capacity at constant pressure; settings: 101.33 kPa, Liquid, Vacuum adiabatic calorimetry
[2] = Molar enthalpy of transition or fusion; settings: Crystal; Adiabatic calorimetry
[3] = for molar entropy: 101.33 kPa, Vacuum adiabatic calorimetry; for vapor or sublimation pressure: Closed cell (Static) method

CN=C=O [methyl isocyanate]
[1]
Settings | molar heat capacity at constant pressure [J/K/mol]
192.13 K | 103.09 ± 0.3
196.44 K | 103.09 ± 0.3
197.5 K | 102.93 ± 0.3
198.47 K | 103 ± 0.3
200 K | 103 ± 0.3
201 K | 102.97 ± 0.3
202.92 K | 103 ± 0.3
210 K | 103 ± 0.3
211.33 K | 103 ± 0.3
219.74 K | 103 ± 0.3
220 K | 103 ± 0.3
228.75 K | 102.9 ± 0.3
230 K | 103.1 ± 0.3
238.24 K | 103.3 ± 0.3
240 K | 103.4 ± 0.3
247.64 K | 103.6 ± 0.3
250 K | 103.8 ± 0.3
257.03 K | 104.1 ± 0.3
260 K | 104.3 ± 0.3
266.32 K | 104.6 ± 0.3
270 K | 104.9 ± 0.3
275.54 K | 105.4 ± 0.3
280 K | 105.8 ± 0.3
284.64 K | 106.1 ± 0.3
290 K | 106.7 ± 0.3
293.07 K | 107 ± 0.3
300 K | 107.7 ± 0.3
301.23 K | 107.7 ± 0.3

Settings | Molar enthalpy of transition or fusion [kcal/mol]
[2] | 1.782 ± 0.00382

[3]
Settings | Triple point temperature [K] | molar entropy [J/K/mol] | vapor or sublimation pressure [kPa]
20 K, Crystal | – | 2.44 ± 0.037 | –
30 K, Crystal | – | 6.933 ± 0.081 | –
40 K, Crystal | – | 12.87 ± 0.099 | –
50 K, Crystal | – | 19.5 ± 0.12 | –
60 K, Crystal | – | 26.39 ± 0.14 | –
70 K, Crystal | – | 33.31 ± 0.16 | –
80 K, Crystal | – | 40.14 ± 0.18 | –
90 K, Crystal | – | 46.89 ± 0.37 | –
100 K, Crystal | – | 53.42 ± 0.38 | –
110 K, Crystal | – | 59.72 ± 0.39 | –
120 K, Crystal | – | 65.78 ± 0.4 | –
130 K, Crystal | – | 71.59 ± 0.41 | –
140 K, Crystal | – | 77.17 ± 0.42 | –
150 K, Crystal | – | 82.52 ± 0.42 | –
160 K, Crystal | – | 87.67 ± 0.43 | –
170 K, Crystal | – | 92.65 ± 0.44 | –
178.47 K, Liquid | – | – | 0.024 ± 0.0067
180 K, Liquid | – | 139.42 ± 0.51 | –
184.03 K, Liquid | – | – | 0.036 ± 0.0067
189.11 K, Liquid | – | – | 0.04666 ± 0.0067
190 K, Liquid | – | 145 ± 0.52 | –
194.19 K, Liquid | – | – | 0.06666 ± 0.0067
199.43 K, Liquid | – | – | 0.1293 ± 0.0067
200 K, Liquid | – | 150.29 ± 0.53 | –
204.46 K, Liquid | – | – | 0.2053 ± 0.0067
209.49 K, Liquid | – | – | 0.3106 ± 0.0067
210 K, Liquid | – | 155.31 ± 0.53 | –
214.49 K, Liquid | – | – | 0.4826 ± 0.0067
219.48 K, Liquid | – | – | 0.7226 ± 0.008
220 K, Liquid | – | 160.1 ± 0.54 | –
224.44 K, Liquid | – | – | 1.048 ± 0.012
229.43 K, Liquid | – | – | 1.5 ± 0.013
230 K, Liquid | – | 164.68 ± 0.55 | –
234.35 K, Liquid | – | – | 2.12 ± 0.015
239.21 K, Liquid | – | – | 2.938 ± 0.016
240 K, Liquid | – | 169.08 ± 0.55 | –
244.16 K, Liquid | – | – | 4.036 ± 0.019
249.07 K, Liquid | – | – | 5.45 ± 0.021
250 K, Liquid | – | 173.31 ± 0.56 | –
253.98 K, Liquid | – | – | 7.286 ± 0.027
258.88 K, Liquid | – | – | 9.597 ± 0.031
260 K, Liquid | – | 177.38 ± 0.57 | –
263.72 K, Liquid | – | – | 12.47 ± 0.037
268.59 K, Liquid | – | – | 16.03 ± 0.045
270 K, Liquid | – | 181.33 ± 0.57 | –
273.4 K, Liquid | – | – | 20.31 ± 0.055
278.1 K, Liquid | – | – | 25.44 ± 0.065
280 K, Liquid | – | 185.16 ± 0.58 | –
282.71 K, Liquid | – | – | 31.41 ± 0.079
287.27 K, Liquid | – | – | 38.39 ± 0.095
290 K, Liquid | – | 188.89 ± 0.58 | –
296.38 K, Liquid | – | – | 56.22 ± 0.13
297.07 K, Liquid | – | – | 57.78 ± 0.13
300 K, Liquid | – | 192.52 ± 0.59 | –
Crystal, Adiabatic calorimetry | 178.46 ± 0.084 | – | –
